Measurements published in patent publication US11236107B2, “Crystal of tricyclic compound” (Chia Tai Tianqing Pharmaceutical Group Co., Ltd., priority 2017, dated 2022).

Key:
[1] = molecular target: T1, IDO1 enzyme in Hela cells (Homo sapiens, UniProt P14902); assay: hIDO1 cytological activity assay (kynurenine in Hela cells by LC-MS); format: cell-based; details: IDO1 induced with 100 ng/mL recombinant human γ-interferon, 20 h, read-out: hIDO1 Cytological active IC50
T1 construct: recombinant human γ-interferon was added to a final concentration of 100 ng/mL to induce IDO1 expression; endogenous in cells; host or cells: Hela cells
T1 sequence (P14902 whole entry): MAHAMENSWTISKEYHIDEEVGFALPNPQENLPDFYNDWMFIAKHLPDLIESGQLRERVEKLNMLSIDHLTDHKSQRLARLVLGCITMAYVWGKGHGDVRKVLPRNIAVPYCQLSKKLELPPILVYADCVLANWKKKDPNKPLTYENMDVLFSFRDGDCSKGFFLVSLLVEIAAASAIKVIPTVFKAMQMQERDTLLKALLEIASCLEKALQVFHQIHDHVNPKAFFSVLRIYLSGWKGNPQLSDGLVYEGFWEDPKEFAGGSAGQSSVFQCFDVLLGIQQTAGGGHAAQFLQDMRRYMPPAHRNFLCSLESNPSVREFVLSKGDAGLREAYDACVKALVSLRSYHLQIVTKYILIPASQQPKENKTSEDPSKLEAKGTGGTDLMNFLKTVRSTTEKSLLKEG
Procedure: Experimental Example 2: hIDO1 Cytological Activity Assay
The change of kynurenine in Hela cells was detected by the LC-MS method, and the IC50 value of the compound was used as an index to evaluate the inhibitory effect of the compound of formula I on IDO1 enzyme.
The culture medium, trypsin and DPBS were preheated in a 37° C. water bath. The culture medium for cell culture was sucked out and washed with 10 mL of DPBS; the preheated trypsin was added into the culture flask, and the flask was rotated to allow the trypsin to uniformly cover it, and then placed in a 37° C., 5% CO2 incubator to digest for 1-2 min; in each T150, cells were dispersed with 10-15 mL of the culture medium, centrifuged at 800 rpm for 5 min, and then resuspended with 10 mL of medium; 1 mL of cell suspension was pipetted and cells were counted with Vi-cell; Hela cells were diluted with the culture medium to 5×10^5/mL, 80 μL of the solution was added to a 96-cell plate, and cultured at 37° C. for 5-6 h in a 5% CO2 incubator.
The compound was diluted to 1 mM with DMSO, and then diluted 3-fold in duplicate wells, with 9 gradients. […]
10 μL of recombinant human γ-interferon was added to a final concentration of 100 ng/mL to induce IDO1 expression. […] The content of kynurenine was detected by LC-MS. […]

[2] = molecular target: T2, recombinant human IDO1 enzyme (Homo sapiens, UniProt P14902); assay: In vitro hIDO1 enzyme activity test (NFK Green fluorescence); format: biochemical; details: recombinant human IDO1, L-tryptophan substrate, pH 6.5, NFK Green readout
T2 construct: purchased NTRC NTRC-hIDO-10K
T2 sequence (P14902 whole entry): as above
Procedure: Experimental Example 1: In Vitro hIDO1 Enzyme Activity Test
The change of NFK production was detected by using the NFK Green™ fluorescent molecule, which is the metabolite of the IDO1 enzyme, and the IC50 value of the compound was used as an index, to evaluate the inhibitory effect of the compound of formula I on the recombinant human IDO1 enzyme.
The compound of formula I was diluted to 1 mM with DMSO, and then diluted 3-fold in duplicate wells, with 10 gradients. 48 μL of 50 mM phosphate buffer (pH 6.5) was transferred and added to the compound plate via Bravo automated liquid handling platform. 2 μL of the diluted solution of the compound in DMSO was then added thereto and mixed, followed by transferring 10 μL thereof to an enzyme reaction plate.
The IDO1 enzyme was diluted to 20 nM in the reaction buffer (50 mM phosphate buffer (pH 6.5), 0.1% Tween-20, 2% glycerol, 20 mM ascorbic acid, 20 μg/mL catalase and 20 μM methylene blue), 20 μL of which was transferred to an enzyme reaction plate and incubated at 23° C. for 30 min. The reaction was started by adding 10 μL of 400 μM L-tryptophan substrate and incubated at 23° C. for 90 min. 10 μL of NFK Green™ fluorescent dye was added thereto, and the plate was sealed with the microplate sealing film, incubated at 37° C. for 4 h, and then read on Envision Multimode Microplate Reader (Ex 400 nm/Em 510 nm). […]

IC50 [1]: 74.9 nM
IC50 [2]: 48 nM
SMILES: FC1(F)CCC([C@H]2c3sccc3-c3cncn32)CC1 [Compound of formula I, (S)-8-(4,4-difluorocyclohexyl)-8H-thieno[3,4]pyrrolo[1,5-a]imidazole]
